Data reported in US5385833A, “Pseudomonas sp. ATCC No. 49794 alcohol dehydrogenase” (The Scripps Research Institute, priority 1992, dated 1995).

tested on: Pseudomonas sp. strain PED alcohol dehydrogenase; assay: PED alcohol dehydrogenase enzyme assay, reduction of carbonyl substrates (relative rates); format: biochemical; conditions: not given

| SMILES | Relative rate |
| --- | --- |
| O=C(CCCCl)c1ccc(F)cc1 [Compound 16] | 0 |
| CC(=O)C(=O)c1ccccc1 [Compound 3, 1-phenyl-1,2-propanedione] | 34 |
| CC(=O)CCCCl [Compound 11, 5-chloro-2-pentanone] | 5 |
| CCC(=O)c1ccccc1 [Compound 58] | < 1 |
| CC(=O)CCC(C)=O [Compound 28] | 9 |
| O=C(CCl)CCl [Compound 36] | 6 |
| CC(=O)/C=C/c1ccccc1 [Compound 54] | 0 |
| CC(=O)C(C)Cl (stereo not drawn) [Compound 65] | 11 |
| CCCCC(C)=O [Compound 61] | 5 |
| C#CC(C)=O [Compound 64, 1-Butyn-3-one] | 1 |
| COC(=O)CC(=O)CCl [Compound 9, methyl 4-chloro-3-oxobutanoate] | 4 |
| CCCC(C)=O [Compound 60] | 6 |
| CC(=O)CCC=C(C)C [Compound 23] | 7 |
| O=C(c1ccccc1)C(F)(F)F [Compound 1, trifluoroacetophenone] | 7 |
| CC(=O)C#Cc1ccccc1 [Compound 51] | < 0.1 |
| CC(=O)CCC=C(C)C [Compound 10, 6-methyl-5-hepten-2-one] | 6 |
| CCC(C)=O [Compound 59] | 100 |
| CC(C)[C@@H]1CC[C@@H](C)CC1=O [Compound 41] | 3.4 |
| CC(=O)C(Cl)C(C)=O [Compound 26] | 336 |
| COC(=O)CC(C)=O [Compound 27] | 135 |
| CN(C)CCC(=O)c1ccccc1 [Compound 49] | 8 |

same assay, conditions: Table 1; reduction, 10 mM ketone, 0.45 mM NADH, PED, change in absorbance at 340 nm; Compound 2 = 1 (2.1 U/mg enzyme)

| SMILES | Relative rate |
| --- | --- |
| CC(=O)CCc1ccccc1 [Compound 6, 4-phenyl-2-butanone] | 6 |
| O=C(CCCCl)c1ccccc1 [Compound 8] | 4 |
| O=C[C@@H]1C[C@H]1c1ccccc1 (relative stereo) [Compound 5, 1-carboxaldehyde-2-phenylcyclopropane] | 7 |
| O=C1CCCCc2ccccc21 [Compound 21] | 4 |
| CCCCC(=O)c1ccco1 [Compound 12] | < 0.1 |
| O=C(CCl)c1ccc(O)c(O)c1 [Compound 14] | < 0.1 |
| O=C(CCCCl)c1cccs1 [Compound 17] | 4 |
| CC(=O)c1ccco1 [Compound 19] | 0 |
| CC(=O)c1ccccc1 [Compound 2, acetophenone] | 1 |
| O=C(CC(=O)C(F)(F)F)c1cccs1 [Compound 18] | 0 |
| O=C(c1ccccc1)C1CC1 [Compound 7, phenyl cyclopropyl ketone] | < 1 |
| CCCCCC(=O)CC [Compound 13, 3-octanone] | 3 |
| O=C(CCCCl)c1ccc(O)cc1 [Compound 15] | 0 |
| COc1coc(C(C)=O)c1OC [Compound 20] | 0.6 |
| COC(=O)C(=O)c1ccccc1 [Compound 4, methyl benzoylformate] | 4 |

same assay, conditions: Table 2; determined as described in Table 1 (10 mM ketone, 0.45 mM NADH, 340 nm)

| SMILES | Relative rate |
| --- | --- |
| O=C1CC2C=CC1C2 (stereo not drawn) [Compound 47] | 0 |
| COC(=O)C1CCCC1=O (stereo not drawn) [Compound 31] | 22 |
| CC1C(=O)CCC1=O [Compound 32] | 0 |
| CCOC(=O)CC(=O)CC [Compound 33] | 6 |
| C/C=C/C(C)=O [Compound 70] | < 0.1 |
| CCOC(OCC)C(=O)c1ccccc1 [Compound 50] | < 0.1 |
| CC(=O)CCC(=O)O [Compound 29] | 0 |
| CC(=O)C1CC1 [Compound 66] | 11 |
| C=CC(=O)CCCCC [Compound 34] | 6 |
| C#CC(=O)CCl [Compound 37] | 2 |
| CC(=O)c1ccccn1 [Compound 57] | 1.8 |
| CCCCCC(=O)CC [Compound 35] | 2 |
| CC(=O)C1CC2C=CC1C2 (stereo not drawn) [Compound 46] | 0 |
| CC(=O)C(C)O (stereo not drawn) [Compound 63] | 2 |
| CSC(C)C(C)=O (stereo not drawn) [Compound 67] | 5 |
| O=C1C=CCCC1 [Compound 42] | 0 |
| CC(=O)c1ccc2c(c1)OCCO2 [Compound 52] | 0 |

| SMILES | Relative rate |
| --- | --- |
| CCCCCC(=O)C(=O)O [Compound 30] | 0 |
| COC(OC)C(C)=O [Compound 69] | 5 |
| O=C1C2CCC(C2)C1Cl (stereo not drawn) [Compound 45] | 2 |
| CC(=O)CC(C)=O [Compound 25] | 32 |
| CC(=O)C1CCc2ccccc2C1=O (stereo not drawn) [Compound 55] | 0 |
| CC(=O)COc1ccccc1 [Compound 48] | 7 |
| CC(=O)C(C)CO (stereo not drawn) [Compound 68] | 0 |
| CCCCCC(C)=O [Compound 62] | 5 |
| C#CC(=O)CCC [Compound 39, 1-Hexyn-3-one] | 0 |
| C=CCCC(C)=O [Compound 22] | 8 |
| O=C1CCSc2ccccc21 [Compound 56] | 0 |
| CO/C=C/C(C)=O [Compound 71] | 0 |
| COC(C)=CC(C)=O [Compound 24] | 0 |
| CC(=O)c1c[nH]c2ccccc12 [Compound 53] | 0 |
| C#CC(=O)CCC(=O)OC [Compound 38, Methyl-4-oxo-5-hexynoate] | < 0.1 |
| CC1=CC(=O)CCC1 [Compound 43] | 0 |

same assay, conditions: footnote b of Table 1; 10 mM ketone, 0.45 mM NADH

| SMILES | Rate of reduction corresponding to relative rate 1 [U/mg enzyme] |
| --- | --- |
| CC(=O)c1ccccc1 [Compound 2, acetophenone] | 2.1 |

same assay, conditions: statement in words on Table 1

| SMILES | Substrate quality compared with acetophenone |
| --- | --- |
| CC(=O)CCc1ccccc1 [Compound 6, 4-phenyl-2-butanone] | as good a substrate as is acetophenone |

tested on: PED alcohol dehydrogenase; assay: Kinetics and product inhibition of PED alcohol dehydrogenase, oxidation of 2-propanol with NAD; format: biochemical, Pseudomonas sp. strain PED; conditions: isolated PED alcohol dehydrogenase

| SMILES | Km [µM] |
| --- | --- |
| NC(=O)c1ccc[n+]([C@@H]2O[C@H](COP(=O)([O-])OP(=O)(O)OC[C@H]3O[C@@H](n4cnc5c(N)ncnc54)[C@H](O)[C@@H]3O)[C@@H](O)[C@H]2O)c1 [NAD, nicotinamide adenine dinucleotide] | 525 |
| CC(C)O [Compound 2-propanol, 2-propanol] | 75 |

same assay, conditions: oxidation of 2-propanol

| SMILES | Product inhibition type versus 2-propanol | Product inhibition type versus NAD |
| --- | --- | --- |
| NC(=O)C1=CN([C@@H]2O[C@H](COP(=O)(O)OP(=O)(O)OC[C@H]3O[C@@H](n4cnc5c(N)ncnc54)[C@H](O)[C@@H]3O)[C@@H](O)[C@H]2O)C=CC1 [NADH, reduced nicotinamide adenine dinucleotide] | noncompetitive inhibitors | competitive inhibition |
| CC(C)=O [acetone] | noncompetitive inhibitors | noncompetitive inhibition |

same assay, conditions: with respect to 2-propanol under saturating NAD conditions

| SMILES | specific activity [U/mg] |
| --- | --- |
| CC(C)O [Compound 2-propanol, 2-propanol] | 36 |
